From patent US11311592B2, “Bauhinia extract and uses thereof” (Academia Sinica, priority 2015, dated 2022)

System: p62-RL-HEK cells
Test: Cell-based p62-Renilla luciferase reporter assay of autophagy activity
Parameters: species or system Human
Details: positive controls: 3-MA 5 μM, rapamycin 200 nM; 24 hr at 37° C.
Description: FIG. 3. Treatments with BVEE induces autophagy. A. GFP-LC3-HEK cells were treated with BVEE (50 μg/ml) at 37° C. for 24 h. An autophagy inducer, rapamycin, and an autophagy inhibitor, 3-MA, were included as controls. Clarified lysates containing equal amounts of proteins were resolved by SDS-PAGE and analyzed by Western blotting with anti-p62 (top panel), anti-LC3 (middle panel), and anti-GAPDH (bottom panel) antibodies. B. A stable cell line p62-RL-HEK that overexpresses Renilla luciferase-tagged p62 was treated with BVEE (50 μg/ml) at 37° C. for 24 h. Additional treatments with either rapamycin or 3-MA were included as controls. Renilla luciferase signal was determined by the addition of coelenterazine at equal volume to a final concentration of 5 μM. Luminescence emitted by DMSO-treated cells (Control) was referred to as 100% relative Renilla luciferase signal;
FIG. 12. The autophagy-inducing potency of extracts derived from B. variegate (BV) by using different solvents. The p62-RL-HEK cells were treated with or without B. variegate extract ([…]) at 37° C. for 24 h. Additional treatments with either rapamycin (RAP) or 3-MA were included as references. Renilla luciferase (Luc) activity was determined by the addition of coelenterazine to a final concentration of […]. Luminescence emitted by DMSO-treated cells (Control) was referred to as 100% relative Renilla luciferase signal. […]

For `Cn1cnc(N)c2ncnc1-2` [3-MA, 3-methyladenine], the “luciferase signal of p62-RL-HEK cells” value was “significant increase”.
